What was measured:
Histone deacetylase 4 = Histone deacetylase 4 (Homo sapiens, UniProt P56524); assay: Inhibition of human HDAC4 pre-incubated for 30 mins before substrate addition and measured after 30 mins by HDAC-Glo I/II assay
Histone deacetylase 1 = Histone deacetylase 1 (Homo sapiens, UniProt Q13547); assay: Inhibition of human HDAC1 pre-incubated for 30 mins before substrate addition and measured after 30 mins by HDAC-Glo I/II assay
Histone deacetylase 3 = Histone deacetylase 3 (Homo sapiens, UniProt O15379); assay: Inhibition of human HDAC3 pre-incubated for 30 mins before substrate addition and measured after 30 mins by HDAC-Glo I/II assay
Histone deacetylase 9 = Histone deacetylase 9 (Homo sapiens, UniProt Q9UKV0); assay: Inhibition of human HDAC9 pre-incubated for 30 mins before substrate addition and measured after 30 mins by HDAC-Glo I/II assay
[1] = molecular target: T1, Histone deacetylase (Rattus norvegicus) (UniProt Q6P6W3+Q99P99+Q99P96+Q4QQW4+Q99P97+Q5RJZ2+B1WBY8); settings: at 10 µM
Description: Inhibition of rat liver HDAC at 10 uM pre-incubated for 15 mins before Boc-Lys(Ac)-AMC substrate addition and measured after 30 mins by fluorometry

[2] = molecular target: T1, Histone deacetylase (Rattus norvegicus); settings: at 0.1 µM
Description: Inhibition of rat liver HDAC at 0.1 uM pre-incubated for 15 mins before Boc-Lys(Ac)-AMC substrate addition and measured after 30 mins by fluorometry

[3] = molecular target: T2, Protein deacetylase HDAC6 (Homo sapiens, UniProt Q9UBN7); assay: Inhibition of human HDAC6 pre-incubated for 30 mins before substrate addition and measured after 30 mins by HDAC-Glo I/II assay
T2 sequence (Q9UBN7 whole entry): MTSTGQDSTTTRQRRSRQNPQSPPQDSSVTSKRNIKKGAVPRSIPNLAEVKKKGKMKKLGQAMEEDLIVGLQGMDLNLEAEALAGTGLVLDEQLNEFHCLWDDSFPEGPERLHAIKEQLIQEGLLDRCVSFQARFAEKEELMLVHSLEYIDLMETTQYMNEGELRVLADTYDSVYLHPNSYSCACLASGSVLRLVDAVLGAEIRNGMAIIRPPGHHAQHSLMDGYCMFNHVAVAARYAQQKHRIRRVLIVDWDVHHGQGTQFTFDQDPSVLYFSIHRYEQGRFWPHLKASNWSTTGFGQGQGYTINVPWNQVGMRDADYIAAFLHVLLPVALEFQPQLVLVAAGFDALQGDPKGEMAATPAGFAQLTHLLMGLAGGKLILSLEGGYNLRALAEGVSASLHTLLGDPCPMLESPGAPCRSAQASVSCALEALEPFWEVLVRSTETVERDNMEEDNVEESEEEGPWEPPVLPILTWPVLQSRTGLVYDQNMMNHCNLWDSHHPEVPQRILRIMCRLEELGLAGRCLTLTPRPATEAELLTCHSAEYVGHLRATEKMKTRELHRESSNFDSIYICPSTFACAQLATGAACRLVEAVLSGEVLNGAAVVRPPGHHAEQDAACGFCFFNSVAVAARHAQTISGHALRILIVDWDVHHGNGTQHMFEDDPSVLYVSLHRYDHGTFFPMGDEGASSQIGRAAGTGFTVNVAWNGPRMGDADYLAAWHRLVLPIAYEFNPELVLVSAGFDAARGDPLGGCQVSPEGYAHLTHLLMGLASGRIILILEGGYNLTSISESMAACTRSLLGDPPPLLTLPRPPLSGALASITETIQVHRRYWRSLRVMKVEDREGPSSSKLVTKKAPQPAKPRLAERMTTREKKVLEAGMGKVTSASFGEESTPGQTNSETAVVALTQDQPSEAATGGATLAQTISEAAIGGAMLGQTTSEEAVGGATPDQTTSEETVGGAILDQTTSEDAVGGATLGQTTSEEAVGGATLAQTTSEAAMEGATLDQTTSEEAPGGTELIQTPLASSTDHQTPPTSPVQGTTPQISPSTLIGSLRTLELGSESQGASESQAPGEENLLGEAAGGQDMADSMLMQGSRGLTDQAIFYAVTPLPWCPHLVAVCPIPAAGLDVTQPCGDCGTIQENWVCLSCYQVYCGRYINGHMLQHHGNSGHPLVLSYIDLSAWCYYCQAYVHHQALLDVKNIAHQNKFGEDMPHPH

Histone deacetylase 2 = Histone deacetylase 2 (Homo sapiens, UniProt Q92769); assay: Inhibition of human HDAC2 pre-incubated for 30 mins before substrate addition and measured after 30 mins by HDAC-Glo I/II assay
Histone deacetylase 8 = molecular target: T3, Histone deacetylase 8 (Homo sapiens, UniProt Q9BY41); assay: Inhibition of human HDAC8 pre-incubated for 30 mins before substrate addition and measured after 30 mins by HDAC-Glo I/II assay
T3 sequence (Q9BY41 whole entry): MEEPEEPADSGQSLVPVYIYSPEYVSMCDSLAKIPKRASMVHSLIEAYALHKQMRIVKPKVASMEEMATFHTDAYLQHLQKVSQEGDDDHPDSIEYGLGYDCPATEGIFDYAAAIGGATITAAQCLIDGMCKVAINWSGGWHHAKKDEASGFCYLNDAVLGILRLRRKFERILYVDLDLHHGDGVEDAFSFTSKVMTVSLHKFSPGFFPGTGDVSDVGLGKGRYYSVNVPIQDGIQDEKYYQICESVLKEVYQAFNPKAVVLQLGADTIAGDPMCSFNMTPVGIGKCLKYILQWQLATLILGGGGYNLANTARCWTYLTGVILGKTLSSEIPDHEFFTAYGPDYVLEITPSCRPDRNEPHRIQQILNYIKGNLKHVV

Histone deacetylase 2, sequence (Q92769 whole entry): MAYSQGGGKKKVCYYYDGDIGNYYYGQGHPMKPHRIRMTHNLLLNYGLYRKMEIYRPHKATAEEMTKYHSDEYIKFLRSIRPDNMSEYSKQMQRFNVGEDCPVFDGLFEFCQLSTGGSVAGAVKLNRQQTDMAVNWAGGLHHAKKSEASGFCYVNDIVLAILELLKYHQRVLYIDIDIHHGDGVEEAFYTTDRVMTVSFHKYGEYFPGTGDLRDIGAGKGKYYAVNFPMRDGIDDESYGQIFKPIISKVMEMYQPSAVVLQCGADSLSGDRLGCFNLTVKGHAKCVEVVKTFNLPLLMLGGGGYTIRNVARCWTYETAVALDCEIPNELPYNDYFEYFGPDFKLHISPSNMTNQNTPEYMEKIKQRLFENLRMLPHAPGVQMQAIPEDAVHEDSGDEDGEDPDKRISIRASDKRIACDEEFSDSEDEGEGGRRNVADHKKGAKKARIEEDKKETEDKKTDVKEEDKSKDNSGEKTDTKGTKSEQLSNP
Histone deacetylase 3, sequence (O15379 whole entry): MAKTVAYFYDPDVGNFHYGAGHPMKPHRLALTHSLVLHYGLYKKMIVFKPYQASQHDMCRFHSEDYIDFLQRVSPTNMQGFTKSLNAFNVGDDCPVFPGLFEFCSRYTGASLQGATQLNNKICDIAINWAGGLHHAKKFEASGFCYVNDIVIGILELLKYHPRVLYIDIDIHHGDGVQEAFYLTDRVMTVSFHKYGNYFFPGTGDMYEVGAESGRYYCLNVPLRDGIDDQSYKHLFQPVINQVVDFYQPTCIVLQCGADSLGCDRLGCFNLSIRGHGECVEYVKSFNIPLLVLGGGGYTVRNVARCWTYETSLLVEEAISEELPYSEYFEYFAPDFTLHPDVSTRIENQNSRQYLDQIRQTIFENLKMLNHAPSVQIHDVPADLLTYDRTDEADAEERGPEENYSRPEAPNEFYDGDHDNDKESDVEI
Histone deacetylase 1, sequence (Q13547 whole entry): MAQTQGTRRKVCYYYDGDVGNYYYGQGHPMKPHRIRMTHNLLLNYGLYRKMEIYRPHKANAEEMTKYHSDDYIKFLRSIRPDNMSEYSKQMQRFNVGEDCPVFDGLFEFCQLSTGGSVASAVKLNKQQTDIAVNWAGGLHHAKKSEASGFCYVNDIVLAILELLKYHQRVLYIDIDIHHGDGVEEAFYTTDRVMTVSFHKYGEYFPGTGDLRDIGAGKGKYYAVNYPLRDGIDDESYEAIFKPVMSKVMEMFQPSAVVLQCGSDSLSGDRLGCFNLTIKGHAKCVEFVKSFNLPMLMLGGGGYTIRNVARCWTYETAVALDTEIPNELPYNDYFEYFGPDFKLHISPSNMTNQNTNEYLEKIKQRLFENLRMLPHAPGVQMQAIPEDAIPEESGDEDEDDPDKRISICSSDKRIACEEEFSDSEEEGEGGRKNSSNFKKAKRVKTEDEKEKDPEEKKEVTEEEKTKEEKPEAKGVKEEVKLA
Histone deacetylase 4, sequence (P56524 whole entry): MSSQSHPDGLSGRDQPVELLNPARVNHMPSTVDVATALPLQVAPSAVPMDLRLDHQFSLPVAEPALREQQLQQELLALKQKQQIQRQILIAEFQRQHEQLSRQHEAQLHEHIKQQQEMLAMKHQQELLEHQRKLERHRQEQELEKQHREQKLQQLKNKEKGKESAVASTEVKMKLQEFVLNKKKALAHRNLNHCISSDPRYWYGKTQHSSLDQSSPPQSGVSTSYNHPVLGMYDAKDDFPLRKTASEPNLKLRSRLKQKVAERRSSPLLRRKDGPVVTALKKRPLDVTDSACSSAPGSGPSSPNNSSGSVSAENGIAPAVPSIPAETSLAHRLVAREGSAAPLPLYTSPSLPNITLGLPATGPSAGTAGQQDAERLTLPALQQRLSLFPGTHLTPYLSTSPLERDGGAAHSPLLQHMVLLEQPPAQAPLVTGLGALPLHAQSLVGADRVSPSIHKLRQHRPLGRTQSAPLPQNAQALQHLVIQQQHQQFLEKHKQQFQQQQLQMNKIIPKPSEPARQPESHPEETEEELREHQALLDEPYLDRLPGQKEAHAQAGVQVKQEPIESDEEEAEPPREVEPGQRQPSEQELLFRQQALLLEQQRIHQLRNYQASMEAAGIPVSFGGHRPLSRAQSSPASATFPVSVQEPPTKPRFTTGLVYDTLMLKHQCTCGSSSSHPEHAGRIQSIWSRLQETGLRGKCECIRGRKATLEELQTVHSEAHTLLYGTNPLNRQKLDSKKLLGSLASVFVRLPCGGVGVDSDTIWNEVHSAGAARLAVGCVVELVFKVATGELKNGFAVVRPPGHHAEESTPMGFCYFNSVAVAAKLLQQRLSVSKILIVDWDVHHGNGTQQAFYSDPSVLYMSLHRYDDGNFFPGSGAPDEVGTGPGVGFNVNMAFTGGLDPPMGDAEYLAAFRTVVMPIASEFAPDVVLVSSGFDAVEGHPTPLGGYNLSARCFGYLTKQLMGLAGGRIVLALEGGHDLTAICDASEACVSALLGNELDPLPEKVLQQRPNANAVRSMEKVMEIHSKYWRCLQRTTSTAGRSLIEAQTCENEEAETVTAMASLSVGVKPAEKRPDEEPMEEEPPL
Histone deacetylase 9, sequence (Q9UKV0 whole entry): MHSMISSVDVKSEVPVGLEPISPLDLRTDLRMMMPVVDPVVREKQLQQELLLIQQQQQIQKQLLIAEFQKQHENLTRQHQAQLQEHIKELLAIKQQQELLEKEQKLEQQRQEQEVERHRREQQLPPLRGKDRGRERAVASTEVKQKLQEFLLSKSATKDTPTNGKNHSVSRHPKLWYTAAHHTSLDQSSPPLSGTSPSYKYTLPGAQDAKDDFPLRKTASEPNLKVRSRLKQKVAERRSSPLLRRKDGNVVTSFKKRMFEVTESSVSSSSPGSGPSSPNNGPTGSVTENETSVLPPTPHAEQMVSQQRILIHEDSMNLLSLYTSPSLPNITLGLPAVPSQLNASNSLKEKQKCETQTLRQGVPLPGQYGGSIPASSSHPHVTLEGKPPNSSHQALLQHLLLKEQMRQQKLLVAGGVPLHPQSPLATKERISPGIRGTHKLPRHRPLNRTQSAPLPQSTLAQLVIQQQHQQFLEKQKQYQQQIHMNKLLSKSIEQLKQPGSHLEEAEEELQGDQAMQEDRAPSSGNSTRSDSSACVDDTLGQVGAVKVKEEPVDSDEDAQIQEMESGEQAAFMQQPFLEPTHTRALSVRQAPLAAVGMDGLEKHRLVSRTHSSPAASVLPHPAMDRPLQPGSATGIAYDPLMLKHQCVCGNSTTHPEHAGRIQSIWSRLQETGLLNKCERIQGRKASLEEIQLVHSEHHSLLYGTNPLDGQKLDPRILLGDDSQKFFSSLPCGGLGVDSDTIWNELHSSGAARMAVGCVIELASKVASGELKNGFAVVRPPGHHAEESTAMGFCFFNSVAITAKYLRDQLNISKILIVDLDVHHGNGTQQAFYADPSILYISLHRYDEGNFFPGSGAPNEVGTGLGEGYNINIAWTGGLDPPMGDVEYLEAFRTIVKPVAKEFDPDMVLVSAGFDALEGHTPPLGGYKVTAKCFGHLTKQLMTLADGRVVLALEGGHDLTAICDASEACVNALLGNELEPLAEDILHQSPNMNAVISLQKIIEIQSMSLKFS

IC50 (Histone deacetylase 4) | IC50 (Histone deacetylase 1) | IC50 (Histone deacetylase 3) | IC50 (Histone deacetylase 9) | inhibition [1] | inhibition [2] | IC50 [3] | IC50 (Histone deacetylase 2) | IC50 (Histone deacetylase 8) | SMILES
330 nM | 41 nM | 87 nM | 50 nM | 97% | 27% | 530 nM | 25 nM | 24 nM | CC1(C)CC(=O)Nc2ccc(C(=O)NC[C@H]3CC[C@@H](CCC(=O)NO)CC3)cc21
– | – | – | – | 93% | 21% | – | – | – | O=C(CCCCCOc1ccc2ccc(=O)[nH]c2c1)NO
2000 nM | 670 nM | 210 nM | 570 nM | 95% | 22% | 290 nM | 100 nM | 200 nM | CC1(C)CC(=O)Nc2ccc(C(=O)NCc3cccc(/C=C/C(=O)NO)c3)cc21
– | – | – | – | 98% | 46% | – | – | – | O=C(CCCCCCC(=O)Nc1ccc2oc(=O)ccc2c1)NO
86 nM | 89 nM | 98 nM | 41 nM | 99% | 63% | 86 nM | 90 nM | 72 nM | Cn1c(=O)ccc2cc(C(=O)NCCCCCCC(=O)NO)ccc21
– | – | – | – | 99% | 57% | – | – | – | CC1(C)CC(=O)Nc2c(F)cc(C(=O)NCCCCCCC(=O)NO)cc21
– | – | – | – | 95% | 24% | – | – | – | O=C(CCCCCC(=O)Nc1ccc2c(c1)CCC(=O)N2)NO
– | – | – | – | 97% | 30% | – | – | – | O=C(CCCCCCCC(=O)Nc1ccc2c(c1)CCC(=O)N2)NO
– | – | – | – | 99% | 63% | – | – | – | CC1(C)CC(=O)Nc2cc(C(=O)NCCCCCCC(=O)NO)ccc21
280 nM | 24 nM | 180 nM | 46 nM | 100% | 68% | 280 nM | 25 nM | 73 nM | O=C(CCCCCCNC(=O)c1ccc2[nH]c(=O)ccc2c1)NO
– | – | – | – | 94% | 19% | – | – | – | O=C(CCCCCOc1ccc2[nH]c(=O)ccc2c1)NO
220 nM | 35 nM | 89 nM | 57 nM | 99% | 43% | 440 nM | 35 nM | 28 nM | CC1(C)CC(=O)Nc2ccc(C(=O)NC[C@H]3CC[C@H](CCC(=O)NO)CC3)cc21
750 nM | 190 nM | 370 nM | 91 nM | 92% | 22% | 720 nM | 310 nM | 21 nM | CC1(C)CC(=O)Nc2ccc(C(=O)NC[C@H]3CC[C@@H](/C=C/C(=O)NO)CC3)cc21
63 nM | 30 nM | 69 nM | 39 nM | 98% | 44% | 92 nM | 93 nM | 55 nM | CC1(C)CC(=O)Nc2ccc(C(=O)NCCCCCCC(=O)NO)cc21
– | – | – | – | 99% | 49% | – | – | – | CC1(C)CC(=O)Nc2c(F)cc(NC(=O)CCCCCCC(=O)NO)cc21
– | – | – | – | 91% | 11% | – | – | – | CC1(C)CC(=O)Nc2cc(OCCCCCC(=O)NO)ccc21
– | – | – | – | 94% | 17% | – | – | – | CC1(C)CC(=O)Nc2ccc(S(=O)(=O)NCCCCCCC(=O)NO)cc21
– | – | – | – | 86% | 7% | – | – | – | O=C(CCCCCOc1cccc2c1CCC(=O)N2)NO
280 nM | 43 nM | 28 nM | 120 nM | 99% | 50% | 130 nM | 100 nM | 59 nM | CN1C(=O)CC(C)(C)c2cc(C(=O)NCCCCCCC(=O)NO)ccc21
– | – | – | – | 94% | 21% | – | – | – | O=C(CCCCCNC(=O)c1ccc2c(c1)CCC(=O)N2)NO

IC50 (Histone deacetylase 4) | IC50 (Histone deacetylase 1) | IC50 (Histone deacetylase 3) | IC50 (Histone deacetylase 9) | inhibition [1] | inhibition [2] | IC50 [3] | IC50 (Histone deacetylase 2) | IC50 (Histone deacetylase 8) | SMILES
380 nM | 66 nM | 65 nM | 37 nM | 98% | 46% | 110 nM | 22 nM | 49 nM | CC1(C)CC(=O)Nc2ccc(C(=O)NCc3ccc(/C=C/C(=O)NO)cc3)cc21
– | – | – | – | 96% | 27% | – | – | – | CC1(C)CC(=O)Nc2cc(C(=O)NCc3cccc(/C=C/C(=O)NO)c3)ccc21
47 nM | 9.1 nM | 89 nM | 45 nM | 98% | 58% | 550 nM | 10 nM | 33 nM | CC1(C)CC(=O)Nc2ccc(NC(=O)CCCCCCC(=O)NO)cc21
120 nM | 14 nM | 91 nM | 25 nM | 98% | 51% | 630 nM | 18 nM | 94 nM | O=C(CCCCCCC(=O)Nc1ccc2c(c1)CCC(=O)N2)NO
– | – | – | – | 65% | 9% | – | – | – | O=C(CCCOc1ccc2c(c1)CCC(=O)N2)NO
– | – | – | – | 91% | 11% | – | – | – | O=C(CCCCCCS(=O)(=O)Nc1ccc2c(c1)CCC(=O)N2)NO
78 nM | 52 nM | 28 nM | 34 nM | 100% | 70% | 40 nM | 170 nM | 80 nM | COc1ccc2cc(C(=O)NCCCCCCC(=O)NO)ccc2n1
– | – | – | – | 94% | 18% | – | – | – | O=C(CCCCCCNS(=O)(=O)c1ccc2[nH]c(=O)ccc2c1)NO
– | – | – | – | 80% | 4% | – | – | – | O=C(CCCCCOc1cccc2c1NC(=O)CC2)NO
– | – | – | – | 86% | 7% | – | – | – | O=C(CCCCCOc1cccc2ccc(=O)[nH]c12)NO
– | – | – | – | 99% | 51% | – | – | – | CN1C(=O)CCc2cc(C(=O)NCCCCCCC(=O)NO)ccc21
– | – | – | – | 99% | 52% | – | – | – | COC1=Nc2ccc(NC(=O)CCCCCCC(=O)NO)cc2C(C)(C)C1
– | – | – | – | 88% | 11% | – | – | – | CC1(C)CC(=O)Nc2ccc(OCCCCCC(=O)NO)cc21
– | – | – | – | 98% | 40% | – | – | – | O=C(CCCCCCCNC(=O)c1ccc2c(c1)CCC(=O)N2)NO
– | – | – | – | 91% | 12% | – | – | – | O=C(CCCCCOc1ccc2oc(=O)ccc2c1)NO
– | – | – | – | 94% | 15% | – | – | – | O=C(CCCCCCNS(=O)(=O)c1ccc2c(c1)CCC(=O)N2)NO
– | – | – | – | 98% | 55% | – | – | – | CN1C(=O)CC(C)(C)c2cc(NC(=O)CCCCCCC(=O)NO)ccc21
– | – | – | – | 91% | 13% | – | – | – | O=C(CCCCCOc1ccc2c(c1)CCC(=O)N2)NO
– | – | – | – | 91% | 13% | – | – | – | O=C(CCCCCOc1ccc2c(c1)NC(=O)CC2)NO
– | – | – | – | 97% | 42% | – | – | – | CCOC1=Nc2ccc(NC(=O)CCCCCCC(=O)NO)cc2C(C)(C)C1

From ChEMBL document CHEMBL3351757, “Design and synthesis of novel and highly-active pan-histone deacetylase (pan-HDAC) inhibitors” (Bioorg Med Chem, 2014)
